Assay results as given in US20170129958A1, “COMBINATION THERAPY” (ImClone LLC, priority 2014, published 2017).
Read-outs that look alike come from different tables or passages of the source.

Tests used:
[1] = tested on: patients with advanced STS; settings: interim analysis; for Disease Control Rate (CR + PR + SD) (%) (90% CI) / ORR (CR + PR) (%) (90% CI): RECIST 1.1
Experimental: The Study is an open-label, multicenter, Phase 2 trial in which patients with advanced STS not amenable to treatment with surgery or radiotherapy are treated with olaratumab in combination with doxorubicin or doxorubicin alone.
Enrolled patients who meet all eligibility criteria are randomized 1:1 to one of two treatment arms, Arm A or Arm B. Arm A patients receive olaratumab in combination with doxorubicin (hereinafter the “Combination Arm”) and Arm B patients receive doxorubicin alone (hereinafter the “Doxorubicin Arm”). Randomization of this Study is performed according to a dynamic randomization algorithm using 4 pre-defined risk factors: PDGFRα expression (positive vs. negative), number of previous lines of treatment (0 vs. 1+lines), histological tumor type (i.e., leiomyosarcoma vs. synovial sarcoma vs. other tumor type), and ECOG performance status (0-1 vs. 2). This dynamic randomization procedure is used to minimize imbalance between treatment groups. To determine tumor type and PDGFRα expression in patients, a tumor sample from either a biopsy or previously archived tumor tissue sample is sufficient. Biopsy is required to be performed within 21 days prior to randomization; archived tissue sample must also be available within this timeframe.
Combination Arm: 64 patients randomized in the Combination Arm receive 15 mg/kg of olaratumab on Days 1 and 8 of each 21-day treatment cycle, in combination with 75 mg/m^2 doxorubicin administered on Day 1 of each cycle. (Note: if premedication is required prior to the first doxorubicin infusion, this is to be done after the completion of olaratumab infusion, not before the olaratumab infusion. This premedication may be administered within the hour that follows completion of the olaratumab infusion.) The actual (not planned) administration of each doxorubicin infusion defines Day 1 of each 21-day treatment cycle. The combination treatment just described is to continue for up to 8 cycles at the investigator's discretion. During Cycles 5 through 8, patients being treated with doxorubicin may also be administered 750 mg/m^2 dexrazoxane on Day 1 of each cycle, (at the investigator's discretion) prior to doxorubicin on Day 1 of each 21-day cycle. If the dose of doxorubicin is reduced at any point in the Study, the dose of dexrazoxane is to be reduced accordingly, maintaining a dosage ratio of 10:1. For example, if doxorubicin is reduced to 60 mg/m^2, then dexrazoxane is to be reduced to 600 mg/m^2. Doxorubicin may be administered within the hour that follows completion of the olaratumab infusion. In the absence of PD or other withdrawal criteria, patients in the Combination Arm who have completed eight cycles of therapy are to receive subsequent olaratumab monotherapy, administered on Days 1 and 8 of each 21-day cycle. Furthermore, if doxorubicin is discontinued (e.g., for reasons of toxicity) prior to end of cycle 8 and in the absence of withdrawal criteria, patients may continue to receive olaratumab monotherapy. For patients who discontinue olaratumab during the first 8 cycles of treatment, doxorubicin may be continued (for up to 8 cycles), provided no withdrawal criteria are met.
Doxorubicin Arm: 65 patients randomized in the Doxorubicin Arm receive 75 mg/m^2 doxorubicin on Day 1 of each cycle, for up to 8 cycles at the investigator's discretion. The actual (not planned) administration of each doxorubicin infusion defines Day 1 of each 21-day treatment cycle. During cycles 5 through 8, 750 mg/m^2 dexrazoxane may also be administered on Day 1 of each cycle, (at the investigator's discretion) prior to doxorubicin on Day 1 of each 21-day cycle. If the dose of doxorubicin is reduced at any point in the Study, the dose of dexrazoxane is to be reduced accordingly, maintaining a dosage ratio of 10:1. For example, if doxorubicin is reduced to 60 mg/m^2, then dexrazoxane is to be reduced to 600 mg/m^2.

[2] = tested on: KHOS/NP osteosarcoma xenograft; experiment: KHOS/NP osteosarcoma xenograft model; assay type: in vivo, nu/nu athymic mice; settings: day 32; olaratumab 60 mg/kg (loading dose 214 mg/kg), doxorubicin 3 mg/kg, i.p. twice a week; versus saline control
Experimental: 6 to 7-week-old female nu/nu athymic mice are injected with 1×10^6 KHOS/NP (ATCC #CRL-1544) cells/mouse in 50% Matrigel (BD Biosciences #356235). When tumors are approximately 450 mm^3 in volume, the mice are randomized by tumor volume into 4 treatment groups (n=12): Group 1 control mice are dosed with USP Saline (Aldwin Scientific #2F7124) at 10 μL/gram, Group 2 mice are dosed with olaratumab at 60 mg/kg (loading dose 214 mg/kg), Group 3 mice are dosed with doxorubicin (Sigma #D-1515) at 3 mg/kg and Group 4 mice are dosed with a combination of olaratumab and doxorubicin at the monotherapy concentrations of 60 mg/kg olaratumab and 3 mg/kg doxorubicin. The combinations are dosed so that doxorubicin is administered 3 hours prior to olaratumab on the days of treatment. All treatments are administered via intra-peritoneal injection twice a week on Monday and Thursday.
(§1) Olaratumab and doxorubicin are prepared in USP Saline. Tumor volume is measured by three dimensional caliper measurements twice a week during the course of the study and calculated as volume in mm^3=L (longer of measured dimension)×W^2 (shorter dimension)×(pi/6). […] Relative changes in tumor volume (% T/C) are calculated using the tumor volume measurements taken at day 32, whereas the baseline tumor volume is the volume recorded on or just prior to first day of dosing.

[3] = tested on: SKLMS-1 leiomyosarcoma xenograft; experiment: SKLMS-1 leiomyosarcoma xenograft model; assay type: in vivo, nu/nu athymic mice; settings: day 21; olaratumab 60 mg/kg (loading dose 214 mg/kg), doxorubicin 3 mg/kg, i.p. twice a week; versus saline control
Experimental: 6 to 7-week-old female nu/nu athymic mice are injected with 5×10^6 SKLMS-1 (ATCC #HBT-88) cells/mouse in 50% Matrigel (BD Biosciences #356235). When tumors are approximately 300 mm^3 in volume, the mice are randomized by tumor volume into 4 treatment groups (n=12): Group 1 control mice are dosed with USP Saline (Aldwin Scientific #2F7124) at 10 μL/gram, Group 2 mice are dosed with olaratumab at 60 mg/kg (loading dose 214 mg/kg), Group 3 mice are dosed with doxorubicin (Sigma #D-1515) at 3 mg/kg and Group 4 mice are dosed with a combination of olaratumab and doxorubicin at the monotherapy concentrations of 60 mg/kg olaratumab and 3 mg/kg doxorubicin. The combinations are dosed so that olaratumab is administered 1-2 hours prior to doxorubicin on the days of treatment. All treatments are administered via intra-peritoneal injection twice a week on Tuesday and Friday.
as §1, with “21 and” for “32, whereas”

[4] = tested on: A204 rhabdoid tumor xenograft; experiment: A204 rhabdoid xenograft model; assay type: in vivo, nu/nu athymic mice; settings: day 30; olaratumab 40 mg/kg i.p. 3x a week; versus HuIgG control
Experimental: 7 to 8-week-old female nu/nu athymic mice are injected with 5×10^6 A204 (ATCC #CRL-7900) cells/mouse in 100% Matrigel (BD Biosciences #356235). When tumors are approximately 340 mm^3 in volume, the mice are randomized by tumor volume into 2 treatment groups (n=12): Group 1 control mice are dosed with HuIgG (Equitech-Bio #SLH66-0001) at 40 mg/kg and Group 2 mice are dosed with olaratumab at 40 mg/kg. All treatments are administered via intra-peritoneal injection 3×a week on Monday, Wednesday and Friday.
Olaratumab is diluted in USP Saline (Aldwin Scientific #2F7124) at 4 mg/mL. Tumor volume is measured by three dimensional caliper measurements twice a week during the course of the study and calculated as volume in mm^3=L (longer of measured dimension)×W^2 (shorter dimension)×(pi/6). A repeated measures ANOVA is used to evaluate the differences in tumor growth and body weight between the treatment groups. Relative changes in tumor volume (%T/C) are calculated using the tumor volume measurements taken at day 30, whereas the baseline tumor volume is the volume recorded on or just prior to first day of dosing.

[5] = patients sub-typed with leiomyosarcoma

Row | Compound | OS Median Weeks (90% CI) ([1]; all STS subtypes, Kaplan-Meier) [weeks] | PFS Median Weeks (90% CI) ([1]; all STS subtypes, Kaplan-Meier, olaratumab 15 mg/kg Days 1 and 8, doxorubicin 75 mg/m^2 Day 1, 21-day cycle) [weeks] | 12-month OS rate ([1]; 12 months) [%] | 18-month OS rate ([1]; 18 months) [%] | Disease Control Rate (CR + PR + SD) (%) (90% CI) [1] | ORR (CR + PR) (%) (90% CI) [1] | Disease Control Rate (CR + PR + SD) (%) (90% CI) ([1]; listed as Doxorubicin Arm) | ORR (CR + PR) (%) (90% CI) ([1]; listed as Doxorubicin Arm) | PFS Other Sarcoma Median Weeks (90% CI) ([1]; patients sub-typed as other sarcomas) [weeks] | OS Leiomyosarcoma Median Weeks (90% CI) [1, 5] [weeks] | PFS Leiomyosarcoma Median Weeks (90% CI) [1, 5] [weeks] | OS Other Sarcoma Median Weeks (90% CI) ([1]; patients sub-typed with other sarcomas) [weeks] | % T/C (relative change in tumor volume) [2] [%] | % T/C (relative change in tumor volume) [3] [%] | % T/C (relative change in tumor volume) [4] [%]
1 | COc1cccc2c1C(=O)c1c(O)c3c(c(O)c1C2=O)C[C@@](O)(C(=O)CO)C[C@@H]3O[C@H]1C[C@H](N)[C@H](O)[C@H](C)O1 [doxorubicin] | 58.7 | 17.9 | 55.1 | 40.0 | 53.8 | 10.8 | 53.8 | 10.8 | 19.0 | 45.3 | 15.7 | 78.1 | 72 | 64 | 
2 | olaratumab: recombinant human monoclonal IgG1 anti-PDGFRα antibody; two heavy chains SEQ ID NO: 9, two light chains SEQ ID NO: 10; CAS 1024603-93-7 |  |  |  |  |  |  |  |  |  |  |  |  | 79 | 64 | 37
